Experiments:
OATP1B1 = molecular target: T1, OATP1B1 (Homo sapiens, UniProt Q9Y6L6); test: OATP1B1 transporter substrate uptake in OATP1B1-HEK293 cells; format: in vitro ADME
T1 construct: expressed in transfected cells; host or cells: HEK293
T1 sequence (Q9Y6L6 1-691): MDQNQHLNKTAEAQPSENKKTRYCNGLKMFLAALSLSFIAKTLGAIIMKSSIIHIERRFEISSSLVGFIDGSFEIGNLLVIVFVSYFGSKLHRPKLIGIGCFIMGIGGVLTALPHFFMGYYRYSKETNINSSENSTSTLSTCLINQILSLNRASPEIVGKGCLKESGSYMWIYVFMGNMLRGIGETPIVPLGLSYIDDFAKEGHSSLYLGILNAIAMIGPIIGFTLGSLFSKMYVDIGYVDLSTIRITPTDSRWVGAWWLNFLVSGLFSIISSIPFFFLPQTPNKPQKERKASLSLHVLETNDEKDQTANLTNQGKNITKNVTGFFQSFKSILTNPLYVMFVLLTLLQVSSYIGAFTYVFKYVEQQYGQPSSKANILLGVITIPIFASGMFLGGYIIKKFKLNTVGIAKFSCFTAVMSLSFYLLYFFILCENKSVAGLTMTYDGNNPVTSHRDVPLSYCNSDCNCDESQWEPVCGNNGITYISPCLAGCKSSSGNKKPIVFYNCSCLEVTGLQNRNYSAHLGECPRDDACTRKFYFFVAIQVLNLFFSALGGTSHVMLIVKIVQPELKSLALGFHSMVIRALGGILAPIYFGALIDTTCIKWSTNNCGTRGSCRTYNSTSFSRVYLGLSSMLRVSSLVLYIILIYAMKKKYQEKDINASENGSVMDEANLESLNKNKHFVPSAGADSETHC
Method: Protocol for identification of compounds that are substrates of transporters OATPIBI and OATPIB3. Transfected HEK293 and vector control HEK293 cells were cultured in 24-well poly-D-lysine or collagen-coated tissue culture plates ([…]) for 2 and 10 minutes respectively in transport buffer (HBSSg, pH 7.4, pre-warmed to 37° C.). At a defined time point, the uptake experiments were stopped by removing dosing solution followed by two washes of ice-cold HBSSg buffer. The cells were lysed for 2 minutes with 75% ACN containing an appropriate internal standard (when available). Lysis buffer were chilled to −20° C., and the plate was kept on ice during lysis. The cell lysate was transferred into a 96-well plate for sample analysis with LC-MS/MS analysis to determine concentration of test compound in cell lysate. The uptake of test compounds was normalized by total cell protein using the BCA Protein Assay Kit following the manufacturer's protocol. The inhibitor Rifamycin SV was used to block OATP1B1 and OATP1B3 transporter activity in order to determine uptake ratios.

in vitro = format: cell-based; details: human
Method: Assays for the anti-HAV activity of the hepatoselective DHQ compounds were carried out in Huh-7 human hepatoma cells using the 18f-NLuc reporter virus, which expresses nanoluciferase (NLuc) from sequence inserted into the polyprotein coding region of the HM175/18f HAV genome between the VP1pX and 2B coding sequences (Yamane et al., 2019). The method was modified minimally from that described by Misumi et al. for iminosugar compounds (Misumi et al., 2021). Cells (approximately […]) were plated in wells of a 96-well plate with Dulbecco's modified Eagle medium (DMEM) and 10% fetal bovine serum. The cells were inoculated 24 hrs later with 18f-NLuc virus (approximately 10^6-10^7 genome equivalents) in medium containing increasing concentrations of the compounds of interest. […] Luminescence was measured using a Biotek Synergy II multi-mode plate reader (BioTek Instruments). […] Cell toxicity of the compounds was assessed using the WST-1 Cell Proliferation Reagent (Sigma-Aldrich) at the end of the treatment period in parallel cultures of uninfected cells, with WST-1 reagent added to cultures for 1 hr prior to harvest and O.D. reading.
Additional exemplary compounds of the present invention are evaluated for anti-HAV activity in accordance with certain assays described hereinabove. […] Luminescence was measured using a Biotek Synergy II multi-mode plate reader (BioTek Instruments). […]

[1] = system: 18f-NLuc reporter virus (HM175/18f HAV); test: Antiviral activity against human hepatitis A virus, 18f-NLuc reporter virus in Huh-7 cells; format: cell-based, Human Hepatitis A Virus (Hepatovirus A); details: Hepatovirus A, Huh-7, 48 h, Huh-7 cells, 18f-NLuc virus, 48 hrs
Method: Assay for Antiviral Activity Against Human Hepatitis A Virus (Hepatovirus A).
(§1) Assays for the anti-HAV activity of the hepatoselective DHQ compounds were carried out in Huh-7 human hepatoma cells using the 18f-NLuc reporter virus, which expresses nanoluciferase (NLuc) from sequence inserted into the polyprotein coding region of the HM175/18f HAV genome between the VP1pX and 2B coding sequences (Yamane et al., 2019). The method was modified minimally from that described by Misumi et al. for iminosugar compounds (Misumi et al., 2021). Cells (approximately […]) were plated in wells of a 96-well plate with Dulbecco's modified Eagle medium (DMEM) and 10% fetal bovine serum. The cells were inoculated 24 hrs later with 18f-NLuc virus (approximately 10^6-10^7 genome equivalents) in medium containing increasing concentrations of the compounds of interest. The cells were re-incubated for 48 hrs at 37° C. in a 5% CO2 environment, then lysed in 1× passive lysis buffer (Promega) for 15 min at room temperature. Cell lysates were transferred to an opaque white 96-well plate (Corning, 3912) and NLuc assay carried out using the NLuc GLOW Assay kit (Nanolight Technology). Luminescence was measured using a Biotek Synergy II multi-mode plate reader (BioTek Instruments). The percent inhibition of replication was calculated by determining the reduction in NLuc activity from that expressed by infected cells incubated in parallel in the absence of compound, and 50% inhibitory endpoints estimated by fitting the data to a four parameter variable slope logistic curve using Prism 9 for Mac OS software (GraphPad). Cell toxicity of the compounds was assessed using the WST-1 Cell Proliferation Reagent (Sigma-Aldrich) at the end of the treatment period in parallel cultures of uninfected cells, with WST-1 reagent added to cultures for 1 hr prior to harvest and O.D. reading.
as §1, with “Additional exemplary compounds of the present invention are evaluated for anti-HAV activity in accordance with certain assays described hereinabove. As discussed above, assays” for “Assays”, “10^6-107” for “10^6-10^7”

With COc1cc2c(cc1OCCCCCCC(=O)O)C[C@@H](C(C)C)n1cc(C(=O)O)c(=O)cc1-2 [Example 6, (S)-9-((6-carboxyhexyl)oxy)-6-isopropyl-10-methoxy-2-oxo-6,7-dihydro-2H-pyrido[2,1-a]isoquinoline-3-carboxylic acid] the “Uptake Ratio (−/+Inhibitor)” value (OATP1B1; OATP1B1-HEK293 cells, test concentration 1 μM, inhibitor Rifamycin SV) was 11.17, the “Uptake Ratio (Transporter(−Inhibitor)/Mock(−Inhibitor))” value (OATP1B1; OATP1B1-HEK293 vs mock HEK293, test concentration 1 μM) was 18.99 and the CC50 at 48 h (in vitro) was > 10 µM. For the same compound, the EC50 [1] was 278 nM.
